The values below come from the NIST ThermoML archive (doi:10.1016/j.jct.2010.12.028).

In general, speed of sound refers to the propagation velocity of pressure waves in the medium. The mass density is the mass of a sample divided by its volume.

The conditions of this data set: 298.15 K, 101.33 kPa, Liquid; for speed of sound: Sing-around technique in a fixed-path interferometer; for mass density: Vibrating tube method.

Numbers after ± are expanded uncertainties.

Turning to `Cc1cccnc1` [3-methylpyridine], the speed of sound stood at 1424 ± 2.3 m/s and the mass density is on record as 952.002 ± 0.24 kg/m3.
Turning to `Cc1ccccc1N` [2-methylaniline], the speed of sound came to 1602.6 ± 2.4 m/s and the mass density came out at 994.351 ± 0.24 kg/m3.
On to `Cc1ccncc1` [4-methylpyridine], for which the speed of sound turned out to be 1431.5 ± 2.3 m/s and the mass density is reported as 950.179 ± 0.24 kg/m3.
In the same order, the values of `Cc1ccccn1` [2-methylpyridine] are 1380.1 ± 2.9 m/s and 939.802 ± 0.77 kg/m3.
In the same order, the values of `c1ccncc1` [pyridine] are 1417.8 ± 2.3 m/s and 978.249 ± 0.24 kg/m3.
